Measurements as given in US20240115558A1.
Entries after “also recorded” stand apart in the source; their conditions may differ. Structures can show the parent of a compound that is named as a salt.

Legend:
NPC1 protein = test: Total NPC1 protein by western blot in NPC patient fibroblast cell lines; type: cell-based, human; conditions: patient fibroblasts with the most common NPC1 mutations; 50-400 μM, five days
Procedure: The data are further described in Example 2.
(§1) Fibroblasts were seeded one day prior to treatment (day −1) with either 400 μM arimoclomol or PBS (control). Cells were treated continuously with arimoclomol from day 0 to day 5, with a media change on day 3, and harvested on day 5. The cells thus experienced 5 days of continued arimoclomol treatment. Cells were subsequently lysed with RIPA buffer containing protease and phosphatase inhibitors. Protein concentration for each sample was quantified with a BCA assay kit.

[1] = test system: patients with Niemann-Pick disease, type C (NPC); test: Phase 2/3 NPC trial: safety evaluation
Procedure: Study Procedures: the screening visit (visit 1) included a baseline assessment, randomization assignment, and pharmacokinetic (PK) assessment. The first dose of arimoclomol or placebo was given within 1 week of randomization. Safety assessments were performed at visit 2 (7-14 days after start of treatment) and then every 3 months during the blinded period (visits 3-6).

[2] = test system: NPC1 protein in GM18453 (I1061T/I1061T); test: EndoH-resistant NPC1 by western blot, GM18453 fibroblasts; type: cell-based, human; conditions: 400 μM, 5 days
Procedure: (§2) PNGase cleaves all glycans from the NPC1 protein regardless of maturation status and is included as a control. EndoH sensitive, immature NPC1 is seen in untreated GM18453 extracts. (B) Quantification of the EndoH resistant NPC1, shown as arimoclomol treated relative to untreated cells. Cells were treated for 5 days with 400 μM arimoclomol. Average of three independent experiments, mean±SD. Pairwise t-test (p: *<0.05). The data are further described in Example 2. […]
(§3) Fibroblasts were seeded one day prior to treatment (day −1) with either 400 μM arimoclomol or PBS (control). […] Protein concentration for each sample was quantified with a BCA assay kit. […]
(§4) Proteins were resolved by SDS-PAGE and detected with Western blot (NPC1&tubulin).
(§5) For the quantification of mature and immature forms of NPC1 as shown in FIGS. 5A-B, membranes were imaged and protein bands for the immature (EndoH sensitive) and mature (EndoH resistant) forms of NPC1 (180-250 kDa) and tubulin (50 kDa) were quantified using ImageJ software. […] The fold change of EndoH-resistant NPC1 protein after arimoclomol treatment relative to PBS-treated (untreated) control within each cell line was quantified. […]

[3] = test system: patients with Niemann-Pick disease, type C (NPC); test: 12-month randomized, double-blind, placebo-controlled phase 2/3 trial of arimoclomol in NPC: clinical efficacy endpoints; type: in vivo, human; design: key to Change from baseline in 5-domain NPCCSS score, treatment difference / Change in 5-domain NPCCSS score from baseline at 12 months, mean change / Change in 5-domain NPCCSS score, mean change / Change from baseline in 5-domain NPCCSS score, LSMean: 5-domain NPCCSS points (total 0–25, higher = more severe impairment); conditions: for Change from baseline in 5-domain NPCCSS score, LSMean / Change from baseline in 5-domain NPCCSS score, treatment difference: patients with ER genotype; for Change in 5-domain NPCCSS score, mean change: 12 months
Procedure: Patients enrolled in the trial were stratified by use of miglustat at baseline. Patients in both strata were randomized 2:1 to receive arimoclomol or placebo.
Routine clinical care was maintained throughout the trial (including administration of miglustat). Each participant was randomized to receive arimoclomol or placebo three times daily. Arimoclomol (calculated as free base) was administered orally or by feeding tube at 93-372 mg/day based on the patient's body weight up to the estimated equivalence of 372 mg/day for adults (body weight>55 kg) or of 124 mg three times a day.
During the 12-month treatment phase, efficacy assessments for the primary endpoint, the 5-domain NPCCSS score, and for the non-disease specific Clinical Global Impression-Improvement scale (CGI-I) scores were performed at baseline and after 3, 6, 9, and 12 months of treatment; all other efficacy and biomarker assessments were performed at baseline and after 6 and 12 months of treatment.
Primary endpoint: The primary endpoint was change from baseline in NPC severity at 12 months as assessed by the 5-domain NPCCSS score, an abbreviated assessment tool originating from the 17 domain NPCCSS score developed by Yanjanin et al., as described herein. The fully validated 5-domain NPCCSS score comprises the domains determined to be most clinically relevant to patients, caregivers, and clinicians: ambulation, cognition, fine motor skills, speech, and swallowing. The total aggregated 5-domain NPCCSS score ranges from 0 to 25, with a higher score indicating more severe clinical impairment.
Subgroup analyses of primary endpoint: NPC is a heterogeneous disease, and patients aged 2 to 18 years present with a large spectrum of disease presentations. The group of children<4 years old includes patients with mild manifestations and patients with aggressive, early fatal disease. As this group is particularly heterogeneous, a subgroup of patients ≥4 years of age was predefined with the population of study participants.
In the EU, miglustat is indicated for the treatment of progressive neurological manifestations in patients with NPC. However, not all patients are candidates for miglustat treatment, and it is recommended that the benefit of treatment should be evaluated on a regular basis (e.g., every six months). An analysis of the subpopulation of patients receiving miglustat was prespecified to elucidate the effect of arimoclomol in patients on background miglustat treatment. Overall, the subgroups of patients ≥4 years of age, and patients on miglustat treatment, were expected to be more homogeneous with respect to baseline demographics and disease characteristics and therefore more suitable for comparison.
In the first post hoc analysis, subjects with double functional null mutations in NPC1 (NPC1 genotype of Functional Null/Functional Null) were excluded.
In the second post hoc analysis, only subjects with annual severity increment score (ASIS) 0.5-2.0 were included.
In an additional post hoc analysis, only subjects with at least one ER type mutation were included.

[4] = evidenced by presence in cerebrospinal fluid of treated ALS patients; cited from earlier work
[5] = test system: NPC1 protein in GM18420 (P1007A/IVS23+4delA); test: EndoH-resistant NPC1 by western blot, GM18420 fibroblasts; type: cell-based, human; conditions: 400 μM, 5 days
Procedure: as §2, §3, §4, §5

[6] = test system: HSPA1A, the gene encoding HSP70; test: HSPA1A expression in NPC patient fibroblasts treated with arimoclomol; type: cell-based, human; conditions: NPC patient fibroblasts I1061T/I1061T; various concentrations; days 2 and 5
Procedure: The expression level of HSP1A1 is quantified on days 2 and day 5. The data are further described in Example 2.
as §1

Question: For `[O-][n+]1cccc(/C(Cl)=N/OC[C@H](O)CN2CCCCC2)c1` [Arimoclomol, (+)-(R)-N-[2-hydroxy-3-(1-piperidinyl)-propoxy]-pyridine-1-oxide-3-carboximidoyl chloride citrate], which “Amount of total NPC1 protein relative to PBS-treated control” value (NPC1 protein) is on record?
Answer: The value was “increased”.

Question: And the Tolerability ([1]; 12-month trial)?
Answer: Its Tolerability is “well tolerated”.

Question: What about the “Patients with increase in serum creatinine level over 1.5 times their baseline values” ([1]; arimoclomol group) of the same compound?
Answer: The value was “Six”.

Question: What about the “Patients with serum creatinine levels over twice baseline values” ([1]; arimoclomol group) of the same compound?
Answer: Its value is “two”.

Question: And the “Patients with TEAEs” value ([1]; arimoclomol group, 30/34)?
Answer: The value was 88.2%.

Question: What about the “Changes in vital signs, electrocardiograms, or other laboratory values during the trial” value ([1]; in vivo) of the same compound?
Answer: The value was “no significant changes”.

Question: What about the “TEAEs occurring more frequently with arimoclomol versus placebo” value ([1]; in vivo) of the same compound?
Answer: Its value is “Upper respiratory tract infection and decreased weight”.

Question: What about the “Patients with TEAEs that led to trial drug discontinuation” value ([1]; three patients, four TEAEs (urticaria, angioedema, increased blood creatinine)) of the same compound?
Answer: Its value is 8.8%.

Question: And the “Amount of EndoH-resistant (correctly processed) NPC1 relative to PBS-treated cells” value [2]?
Answer: Its value is “increased”.

Question: And the “Amount of EndoH-resistant (correctly processed) NPC1 relative to PBS-treated cells” value ([2]; listed as arimoclomol)?
Answer: The value was “increased; also recorded: clear increase of correctly matured NPC1 protein”.

Question: What about the “SARA score change from baseline to 12 months, LS mean” value ([3]; human, in vivo) of the same compound?
Answer: Its value is 1.06.

Question: What about the “SARA score change from baseline to 12 months, arimoclomol vs placebo: difference” value ([3]; human, in vivo) of the same compound?
Answer: Its value is 0.28.

Question: What about the “Change in 5-domain NPCCSS score from baseline at 12 months, mean change” value ([3]; overall population, arimoclomol 93-372 mg/day (free base) t.i.d.) of the same compound?
Answer: The value was 0.80.

Question: And the “Change from baseline in 5-domain NPCCSS score, LSMean” value (“Change from baseline … LSMean” for short) ([3]; month 3)?
Answer: Its value is −0.29.

Question: And the “Change from baseline in 5-domain NPCCSS score, treatment difference” value (“Change from baseline … treatment difference” for short) ([3]; month 3)?
Answer: Its value is −1.60.

Question: What about the “Change from baseline … LSMean” value ([3]; month 6) of the same compound?
Answer: Its value is 0.61.

Question: What about the “Change from baseline … treatment difference” value ([3]; month 6) of the same compound?
Answer: Its value is −2.19.

Question: And the “Change from baseline … LSMean” value ([3]; month 9)?
Answer: Its value is 0.86.

Question: What about the “Change from baseline … treatment difference” value ([3]; month 9) of the same compound?
Answer: Its value is −3.44.

Question: And the “Change from baseline … LSMean” value ([3]; month 12)?
Answer: Its value is 0.52.

Question: What about the “Change from baseline … treatment difference” value ([3]; month 12) of the same compound?
Answer: Its value is −4.79.

Question: What about the “Change in 5-domain NPCCSS score, mean change” value ([3]; post hoc: ASIS within 0.5 and 2) of the same compound?
Answer: Its value is 0.19.

Question: What about the “Change in 5-domain NPCCSS score, mean change” value ([3]; post hoc: excluding individuals with double functional null mutations) of the same compound?
Answer: The value was 0.47.

Question: What about the Blood-brain barrier passage [4] of the same compound?
Answer: Its Blood-brain barrier passage is “crosses the blood-brain barrier”.

Question: What about the “Amount of EndoH-resistant (correctly processed) NPC1 relative to PBS-treated cells” value [5] of the same compound?
Answer: Its value is “increased”.

Question: And the “Expression of HSPA1A relative to PBS-treated control” value [6]?
Answer: The value was “time- and dose-dependent increase”.
